Measurements published in patent US7528224B1, “Peptide for triggering an immune reaction against tumor cells” (Immatics Biotechnologies GmbH, priority 1999, dated 2009).
Ends that are not written are not given here.

How the values were obtained:
T2 cells = assay: 51Cr release cytotoxic T cell activity on peptide-pre-incubated T2 cells; assay type: cell-based, human; details: 4 h; for killing of T2 cells pre-treated with the same peptide by the cytotoxic T cells induced with the peptide: T2 cells pre-incubated with 50 μg/ml of exactly this peptide; for killing of T2 cells pre-treated with other peptides by the cytotoxic T cells induced with the peptide: T2 cells pre-incubated with other peptides
Description: T2 cells which are distinguished by the fact that they can generate HLA-A2, but cannot present peptides synthesized by themselves via this MHC class I molecules, were pre-incubated with 50 μg/ml of synthetic peptide from 1.2 for two hours and marked with [^51Cr]-sodium chromate in RP10 at 37° C. for one hour. In each case 10^4 of these cells were transferred into each of a well of a 96-well-plate. Cytotoxic T cells that were generated before according to 1.3 were added, so that, respectively, an end volume of 200 μl per well was reached. Subsequently, incubation took place for four hours at 37° C. If now the cytotoxic T cells kill the cells that were labeled with ^51Cr before, they lyse these cells, and the ^51Cr contained in the cells is released. At the end of the experiment in the cell supernatants taken off, the released radioactivity is determined by counting in a β-counter. In that way, a measure for the cytotoxic activity of T cells is obtained.

cytotoxic T cells = assay: Induction of cytotoxic T cells in vitro with peptide-pulsed dendritic cells; assay type: cell-based, human; details: dendritic cells incubated with 50 μg/ml synthetic peptide, autologous mononuclear cells
Description: As e.g. described by Brossart, P., et al., Cancer Res 58 (1998), pages 732 ff.; first of all, mononuclear cells of peripheral blood were isolated from buffy coat preparations of heparinized blood of three healthy donators by Ficoll/Paque (Gibco-BRL, Grand Island, N.Y.) density-gradient centrifugation. The cells were seeded in cell culture bowls in RP10 medium.
5×10^5 dendritic cells from 1.1 were incubated with 50 μg/ml synthetic peptide from 1.2 for two hours, washed, and incubated with 2.5×10^6 autologous, i.e. coming from the same donators, mononuclear cells of periphery blood in RP10 medium. Additionally to the control peptides and the potentially HLA-A2 binding peptides the dendritic cells were partly incubated with 50 μg/ml of a PAN-HLA-DR-binding peptide which represents a T helper epitope.
After seven days of cultivation, the cells were again stimulated by adding autologous, mononuclear cells of peripheral blood pre-incubated with the synthetic peptide from 1.2. On the first, third and fifth day, respectively, 1 ng/ml human recombinant IL-2 (Genzyme) was added. The cytokine IL-2 is necessary for the cultivation and reproduction of cytotoxic T cells. Altogether, stimulation was effected up to three times in an interval of a week.

Sequence	killing of T2 cells pre-treated with the same peptide by the cytotoxic T cells induced with the peptide (T2 cells)	killing of T2 cells pre-treated with other peptides by the cytotoxic T cells induced with the peptide (T2 cells)	induction of cytotoxic T cells in vitro by means of dendritic cells (cytotoxic T cells)
LLLLTVLTV [SEQ ID NO: 2]	could kill only those cells which were pre-treated with the peptide with the sequence SEQ ID NO: 2	behave in the same way	able to induce cytotoxic T cells
STAPPVHNV [SEQ ID NO: 1]	able to specifically kill	not able to kill	able to induce cytotoxic T cells
